Measured values taken from publication PMC5095920 (Biochemical Journal, 2016).

Target: T1, HemQ (Staphylococcus aureus, UniProt Q2YS77)
T1 sequence (Q2YS77 1-250): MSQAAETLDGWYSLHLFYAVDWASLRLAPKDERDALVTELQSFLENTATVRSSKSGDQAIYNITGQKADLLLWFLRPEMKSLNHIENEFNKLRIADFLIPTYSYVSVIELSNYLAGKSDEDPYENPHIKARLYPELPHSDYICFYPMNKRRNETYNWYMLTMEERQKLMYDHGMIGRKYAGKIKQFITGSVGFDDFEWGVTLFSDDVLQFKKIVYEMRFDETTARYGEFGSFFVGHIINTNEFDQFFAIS
Test: co-purification on affinity column, absorption spectroscopy
Type: binding
Conditions: porphyrin added before affinity chromatography, pH 8.0

SMILES | co-purification on affinity column, absorption spectroscopy
C=CC1=C(C)c2cc3[nH]c(cc4nc(cc5[nH]c(cc1n2)c(C)c5CCC(=O)O)C(CCC(=O)O)=C4C)c(C)c3C=C [protoporphyrin IX] | HemQ that was loaded with bound haem, protoporphyrin IX, and coproporphyrin III
CC1=C(CCC(=O)O)c2cc3nc(cc4[nH]c(cc5[nH]c(cc1n2)c(C)c5CCC(=O)O)c(CCC(=O)O)c4C)C(CCC(=O)O)=C3C [coproporphyrin III] | HemQ that was loaded with bound haem, protoporphyrin IX, and coproporphyrin III
